Assay results taken from patent US9044442B2, “Peptidomimetic compounds as immunomodulators” (AURIGENE DISCOVERY TECHNOLOGIES LIMITED, priority 2012, dated 2015).

Columns and labels:
[1] = molecular target: T1, recombinant human PDL-1 (Homo sapiens, UniProt Q9NZQ7); test: Rescue of mouse splenocyte proliferation inhibited by recombinant human PDL-1 (CFSE, FACS); type: cell-based; conditions: mouse splenocytes, anti-CD3/CD28 stimulated, rh-PDL-1 100 ng/ml, 72 hrs
T1 construct: Fc (Fc chimera); purchased R&D Systems 156-B7-100
From the text: (§1) The effect of PD1 derived peptidomimetics on mouse splenocyte proliferation inhibited by recombinant PDL1 or tumor cells expressing PDL; analyzed by Fluorescence Activated Cell Shorting (FACS) method using CFSE (Carboxyfluorescein Diacetate Succinimidyl Ester) labeling.
Rescue of Mouse Splenocyte Proliferation in the Presence of Recombinant PD-L1/MDA MB-231 Cells Expressing PDL1:
Alternatively, recombinant human PD-L1 (rh-PDL-1, cat no: 156-B7-100, R&D Systems) was also used as the source of PD-Ll.
Mouse splenocytes harvested from 6-8 weeks old C57 BL6 mice; RPMI 1640 (GIBCO, Cat #11875); DMEM with high glucose (GIBCO, Cat # D6429); Fetal Bovine Serum [Hyclone, Cat # SH30071.03]; Penicillin (10000 unit/ml)-Streptomycin (10,000 μg/ml) Liquid (GIBCO, Cat #15140-122); MEM Sodium Pyruvate solution 100 mM (100×), Liquid (GIBCO, Cat #11360); Nonessential amino acid (GIBCO, Cat #11140); L-Glutamine (GIBCO, Cat #25030); Anti-CD3 antibody (eBiosciences—16-0032); Anti-CD28 antibody (eBiosciences—16-0281); ACK lysis buffer (imp (GIBCO, Cat #-A10492); Histopaque (density-1.083 gm/ml) (SIGMA 10831); Trypan blue solution (SIGMA-T8154); 2 ml Norm Ject Luer Lock syringe—(Sigma 2014-12); 40 μm nylon cell strainer (BD FALCON 35230); Hemacytometer (Bright line-SIGMA Z359629); FACS Buffer (PBS/0.1% BSA): Phosphate Buffered Saline (PBS) pH 7.2 (HiMedia TS1006) with 0.1% Bovine Serum Albumin (BSA) (SIGMA A7050) and sodium azide (SIGMA 08591); 5 mM stock solution of CFSE: CFSE stock solution was prepared by diluting lyophilized CFSE with 180 μL of Di methyl Sulfoxide (DMSO C2H6SO, SIGMA-D-5879) and aliquoted in to tubes for further use. […]
CFSE is a dye that passively diffuses into cells and binds to intracellular proteins. […] Cells were harvested and washed thrice with ice cold FACS buffer and % proliferation was analyzed by flow cytometry with 488 nm excitation and 521 nm emission filters.
(§2) Percent splenocyte proliferation was analyzed using cell quest FACS program and fold induction was calculated by normalizing individual values to % background proliferation. […]

[2] = molecular target: T2, recombinant mouse PDL-1 (Mus musculus, UniProt Q9EP73); test: Rescue of splenocyte effector function, IFN-γ release by ELISA, recombinant mouse PDL-1; type: cell-based; conditions: mouse splenocytes, anti-CD3/CD28, PDL-1 100 ng/ml, 72 hrs, read-out: EC50 (nM), IFN-γ release, in presence of recombinant mouse PDL-1
T2 construct: purchased R&D Systems 1019-B7-100
Method: (§3) 1×10^5 splenocytes (isolated as described earlier) were added to wells containing recombinant mouse PDL-1 (cat no: 1019-B7-100, R&D Systems) or PDL-2 (Cat no: 1022-PL-100, R&D Systems) (both at 100 ng/ml) and test peptidomimetics. Splenocytes were stimulated with anti-mouse CD3 (eBiosciences—16-0032) and anti-mouse CD28 antibody (eBiosciences—16-0281) (1 μg/ml each) and the culture was further incubated for 72 hrs at 37° C. with 5% CO2. After 72 hours of incubation the cell culture supernatants were collected after brief centrifugation of culture plates (200 g×5 mins at 4° C.) and processed for mouse IFN-γ measurement by ELISA following manufacturer's protocol (e Biosciences; 88-7314). In brief, 96 well ELISA plates were coated with 100 μl/well of capture antibody in coating buffer and incubated overnight at 4° C. Plates were washed five times with wash buffer and further blocked with 200 μl of 1× assay diluents for 1 hr at RT. Following wash step, 100 μl of cell culture supernatants were added to wells and further incubated for 2 hrs at RT. Appropriate standards were also included. After wash step, plate was incubated for one hour with 100 μl/well of detection antibody. The wash step was repeated and the plate was incubated for 30 minutes with 100 μl/well of Avidin-HRP. The plate was washed 7 times with wash buffer and incubated for 15 minutes with 100 μl/well of substrate solution. 50 μl of stop solution was added to each well and the plate was read at 450 nm. The absorbance values were then plotted against the standards and the concentration of IFN-γ was determined using GraphPad Prism software. Each experimental condition was carried out in triplicates. Percent IFN-γ release for each test compound concentration was calculated by normalising individual test compound IFN-γ values to anti-CD3+anti-CD28 stimulated IFN-γ value. The percent IFN-γ release by test compounds were calculated using following formula: % IFN-γ release=[(Test compound IFN-γ−PDL background control)/(anti-CD3+anti-CD28 positive control−PDL background control)]*100. […]

[3] = molecular target: T3, recombinant mouse PDL-2 (Mus musculus, UniProt Q9WUL5); test: Rescue of splenocyte effector function, IFN-γ release by ELISA, recombinant mouse PDL-2; type: cell-based; conditions: mouse splenocytes, anti-CD3/CD28, PDL-2 100 ng/ml, 72 hrs, read-out: EC50 (nM), IFN-γ release, in presence of recombinant mouse PDL-2
T3 construct: purchased R&D Systems 1022-PL-100
Method: as §3

[4] = system: MDA-MB-231 tumor cells expressing PD-L1; test: Rescue of mouse splenocyte proliferation inhibited by MDA-MB-231 tumor cells expressing PD-L1 (CFSE based assay); type: cell-based; conditions: for Fold induction: % splenocyte proliferation / % background proliferation, background 1.0, stimulated 3.7; for % Splenocyte proliferation: mouse splenocytes + anti-CD3/CD28 + MDA-MB-231 cells + compound, 72 hrs, background 20, stimulated 74
From the text: as §1
Rescue of Mouse Splenocyte Proliferation in the Presence of Recombinant PD-L1/MDA MB-231 Cells Expressing PDL1: […]
Mouse splenocytes harvested from 6-8 weeks old C57 BL6 mice; RPMI 1640 (GIBCO, Cat #11875); DMEM with high glucose (GIBCO, Cat # D6429); Fetal Bovine Serum [Hyclone, Cat # SH30071.03]; Penicillin (10000 unit/ml)-Streptomycin (10,000 μg/ml) Liquid (GIBCO, Cat #15140-122); MEM Sodium Pyruvate solution 100 mM (100×), Liquid (GIBCO, Cat #11360); Nonessential amino acid (GIBCO, Cat #11140); L-Glutamine (GIBCO, Cat #25030); Anti-CD3 antibody (eBiosciences—16-0032); Anti-CD28 antibody (eBiosciences—16-0281); ACK lysis buffer (imp (GIBCO, Cat #-A10492); Histopaque (density-1.083 gm/ml) (SIGMA 10831); Trypan blue solution (SIGMA-T8154); 2 ml Norm Ject Luer Lock syringe—(Sigma 2014-12); 40 μm nylon cell strainer (BD FALCON 35230); Hemacytometer (Bright line-SIGMA Z359629); FACS Buffer (PBS/0.1% BSA): Phosphate Buffered Saline (PBS) pH 7.2 (HiMedia TS1006) with 0.1% Bovine Serum Albumin (BSA) (SIGMA A7050) and sodium azide (SIGMA 08591); 5 mM stock solution of CFSE: CFSE stock solution was prepared by diluting lyophilized CFSE with 180 μL of Di methyl Sulfoxide (DMSO C2H6SO, SIGMA-D-5879) and aliquoted in to tubes for further use. Working concentrations were titrated from 10 μM to 1 μM. (eBioscience—650850-85); 0.05% Trypsin and 0.02% EDTA (SIGMA 59417C); 96-well format ELISA plates (Corning CLS3390); BD FACS caliber (E6016); Recombinant Human B7-H1/PDL1 Fc Chimera (rh-PDL-1, cat no: 156-B7-100);
Splenocytes harvested in a 50 ml falcon tube by mashing mouse spleen in a 40 μm cell strainer were further treated with 1 ml ACK lysis buffer for 5 mins at room temperature. After washing with 9 ml of RPMI complete media, cells were re-suspended in 3 ml of 1×PBS in a 15 ml tube. 3 ml of Histopaque was added carefully to the bottom of the tube without disturbing overlaying splenocyte suspension. After centrifuging at 800×g for 20 mins at room temperature, the opaque layer of splenocytes was collected carefully without disturbing/mixing the layers. Splenocytes were washed twice with cold 1×PBS followed by total cell counting using Trypan Blue exclusion method and used further for cell based assays.
Splenocytes were cultured in RPMI complete media (RPMI+10% fetal bovine serum+1 mM sodium pyruvate+10,000 units/ml penicillin and 10,000 μg/ml streptomycin) and maintained in a CO2 incubator with 5% CO2 at 37° C.
CFSE is a dye that passively diffuses into cells and binds to intracellular proteins. 1×10^6 cells/ml of harvested splenocytes were treated with 5 μM of CFSE in pre-warmed 1×PBS/0.1% BSA solution for 10 mins at 37° C. Excess CFSE was quenched using 5 volumes of ice-cold culture media to the cells and incubated on ice for 5 mins. CFSE labelled splenocytes were further given three washes with ice cold complete RPMI media. CFSE labelled 1×10^5 splenocytes added to wells containing either MDA-MB231 cells (1×10^5 cells cultured in high glucose DMEM medium) or recombinant human PDL-1 (100 ng/ml) and test compounds. Splenocytes were stimulated with anti-mouse CD3 and anti-mouse CD28 antibody (1 μg/ml each), and the culture was further incubated for 72 hrs at 37° C. with 5% CO2. Cells were harvested and washed thrice with ice cold FACS buffer and % proliferation was analyzed by flow cytometry with 488 nm excitation and 521 nm emission filters.
as §2

[5] = system: CT26 (murine colon carcinoma) cells; test: In vivo efficacy on primary tumour growth in CT-26 colon cancer model; design: species or system mouse; conditions: male Balb/c mice, 3 mg/kg
Method: Two million CT26 (murine colon carcinoma) cells injected to male Balb/c mice (s.c) on day 1 and dosing started on Day 5. Each group consisted of ten animals. Tumor volumes were measured 3 times a week, body weight and clinical signs monitored daily. Compound #2 dosed at 3 mg/kg, inhibited the tumour growth to the extent of 46 percent (p<0. p<0.01, 2-way ANOVA) (FIG. 2).

T2 sequence (Q9EP73 with tags, fused parts or gaps limits assumed): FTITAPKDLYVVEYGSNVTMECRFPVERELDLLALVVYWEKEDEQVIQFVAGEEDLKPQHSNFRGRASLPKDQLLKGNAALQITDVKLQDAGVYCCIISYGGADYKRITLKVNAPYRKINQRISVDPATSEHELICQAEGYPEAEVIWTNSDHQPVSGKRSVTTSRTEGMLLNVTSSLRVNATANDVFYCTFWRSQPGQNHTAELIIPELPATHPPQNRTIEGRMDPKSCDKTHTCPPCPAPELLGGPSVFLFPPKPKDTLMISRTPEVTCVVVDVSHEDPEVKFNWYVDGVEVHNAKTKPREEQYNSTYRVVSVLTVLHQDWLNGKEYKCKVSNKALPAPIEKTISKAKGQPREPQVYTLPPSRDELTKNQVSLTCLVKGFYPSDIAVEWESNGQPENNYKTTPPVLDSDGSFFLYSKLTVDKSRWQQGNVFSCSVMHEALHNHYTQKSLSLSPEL
T1 sequence (Q9NZQ7 with tags, fused parts or gaps limits assumed): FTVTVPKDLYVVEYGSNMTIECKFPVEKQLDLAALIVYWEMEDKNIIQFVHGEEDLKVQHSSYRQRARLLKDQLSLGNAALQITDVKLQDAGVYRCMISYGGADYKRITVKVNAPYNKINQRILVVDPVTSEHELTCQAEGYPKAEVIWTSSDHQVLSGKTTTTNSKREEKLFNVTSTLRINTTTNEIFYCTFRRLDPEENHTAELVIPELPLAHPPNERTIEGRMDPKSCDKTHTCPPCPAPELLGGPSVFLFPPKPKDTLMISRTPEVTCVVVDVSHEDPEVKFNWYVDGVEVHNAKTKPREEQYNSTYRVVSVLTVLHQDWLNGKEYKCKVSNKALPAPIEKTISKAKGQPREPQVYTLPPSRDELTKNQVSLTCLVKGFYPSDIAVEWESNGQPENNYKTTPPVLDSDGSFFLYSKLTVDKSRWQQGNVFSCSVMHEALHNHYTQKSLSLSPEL
T3 sequence (Q9WUL5 with tags, fused parts or gaps limits assumed): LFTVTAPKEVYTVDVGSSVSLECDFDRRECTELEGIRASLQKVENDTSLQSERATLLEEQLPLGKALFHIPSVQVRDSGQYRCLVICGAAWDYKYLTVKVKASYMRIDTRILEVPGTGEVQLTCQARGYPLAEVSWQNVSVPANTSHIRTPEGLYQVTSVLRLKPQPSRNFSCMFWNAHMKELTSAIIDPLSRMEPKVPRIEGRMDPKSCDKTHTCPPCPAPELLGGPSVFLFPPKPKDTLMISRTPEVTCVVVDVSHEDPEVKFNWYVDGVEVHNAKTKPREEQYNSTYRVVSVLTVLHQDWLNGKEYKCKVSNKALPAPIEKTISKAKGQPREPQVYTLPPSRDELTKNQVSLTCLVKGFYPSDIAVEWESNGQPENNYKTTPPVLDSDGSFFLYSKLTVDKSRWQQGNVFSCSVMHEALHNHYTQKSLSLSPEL

| SMILES | Fold induction [4] | % Splenocyte proliferation [4] | other results |
| --- | --- | --- | --- |
| CC(O)[C@H](N)C(=O)NNC(=O)[C@H](CC(N)=O)NC(=O)N[C@@H](CO)C(=O)O (some centres unmarked) [Compound 12] |  |  | EC50 [1]: 0.022 µM; EC50 [2]: 27 nM; EC50 [3]: 62 nM |
| CN[C@@H](CO)C(=O)NNC(=O)[C@H](CC(N)=O)NC(=O)N[C@H](C(=O)O)C(C)O (some centres unmarked) [Compound 4] | 2.8 | 56% |  |
| CNC(=O)N[C@H](C(=O)N[C@@H](CC(N)=O)C(=O)NNC(=O)[C@@H](N)CO)C(C)O (some centres unmarked) [Compound 18] | 3 | 59% |  |
| CC(O)[C@H](NC(=O)N[C@H](CC(N)=O)C(=O)NNC(=O)[C@H](N)CO)C(=O)O (some centres unmarked) [Compound 15] | 2.9 | 58% |  |
| COC[C@H](N)C(=O)NNC(=O)[C@H](CC(N)=O)NC(=O)N[C@H](C(=O)O)C(C)O (some centres unmarked) [Compound 11] | 2.2 | 44% |  |
| CC(O)[C@H](NC(=O)N[C@@H](CC(N)=O)C(=O)NNC(=O)[C@@H](N)CO)C(N)=O (some centres unmarked) [Compound 6] | 2.3 | 46% |  |
| CC(O)[C@H](NC(=O)N[C@@H](CC(N)=O)C(=O)NNC(=O)[C@@H](N)CO)C(=O)O (some centres unmarked) [Compound 2] | 3.4 | 68% | body weight reduction during the period of dosing ([5]; CT26 model): no body weight reduction; clinical signs during the period of dosing ([5]; CT26 model): no clinical signs; inhibition of tumour growth ([5]; CT26 s.c., dosing from Day 5): 46%; EC50 [1]: 0.023 µM; EC50 [2]: 30 nM; EC50 [3]: 40 nM |
| CC(O)[C@H](N)C(=O)N[C@@H](CC(N)=O)C(=O)NNC(=O)[C@@H](N)CO (some centres unmarked) [Compound 5] | 3 | 60% |  |
| NC(=O)C[C@H](NC(=O)N[C@@H](CC(=O)O)C(=O)O)C(=O)NNC(=O)[C@@H](N)CO [Compound 7] | 2.9 | 57% |  |
| NC(=O)C[C@H](N)C(=O)NNC(=O)[C@@H](N)CO [Compound 1] | 2.8 | 56% |  |
| C[C@H](NC(=O)N[C@@H](CC(N)=O)C(=O)NNC(=O)[C@@H](N)CO)C(=O)O [Compound 17] | 3 | 59% |  |
| CC(O)[C@@H](N)C(=O)NNC(=O)[C@@H](CC(N)=O)NC(=O)N[C@H](CO)C(=O)O (some centres unmarked) [Compound 13] | 3.4 | 67% | EC50 [1]: 0.035 µM; EC50 [2]: 40 nM; EC50 [3]: 30 nM |
| COC(=O)[C@@H](NC(=O)N[C@@H](CC(N)=O)C(=O)NNC(=O)[C@@H](N)CO)C(C)O (some centres unmarked) [Compound 10] | 3.4 | 67% |  |
| CCC(C)[C@H](NC(=O)N[C@@H](CC(N)=O)C(=O)NNC(=O)[C@@H](N)CO)C(=O)O (some centres unmarked) [Compound 8] | 3 | 60% |  |
